How the values were obtained:
[1] = test system: Aβ42; assay: Screening for γ-secretase-modulating activity, Method 1: Aβ42 sandwich ELISA in supernatant of SKNBE2 cells carrying APP 695 wild type (Tables 12a, 12b); type: cell-based
Summary of the method: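 SKNBE2 cells expressing wild-type APP695 were treated with compound for 18 h, and secreted Aβ42 in the medium was quantified by sandwich ELISA (C-terminal-selective capture, biotinylated 3D6 detection, TMB read at 450 nm). IC50 came from 4-parameter fits of % inhibition or % of untreated control; toxicity was checked by WST-1.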

[2] = test system: Aβtotal; assay: Screening for γ-secretase-modulating activity, Method 1: Aβtotal sandwich ELISA in supernatant of SKNBE2 cells carrying APP 695 wild type (Tables 12a, 12b); type: cell-based
Summary of the method: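 SKNBE2 cells expressing wild-type APP 695 were plated a day ahead, then exposed to compound in Ultraculture with 1% glutamine for 18 hours. Supernatant Aβtotal captured on 6E10 overnight at 4° C, detected with biotinylated 4G8 and streptavidin-peroxidase with a fluorogenic substrate. IC50 from 4-parameter dose-response fits.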

[3] = test system: Aβ42; assay: Demonstration of in vivo efficacy: Aβ42 lowering in brain after single oral dose (Table 13); settings: mouse brain soluble fraction, ELISA, mean, compared to untreated animals
Text: (§1) To determine whether acute administration of an Aβ42 lowering agent would reduce Aβ42 levels in vivo, non-transgenic rodents, e.g. mice or rats were used. Alternatively, two to three month old Tg2576 mice expressing APP695 containing the “Swedish” variant can be used or a transgenic mouse model developed by Dr. Fred Van Leuven (K. U. Leuven, Belgium) and co-workers, with neuron-specific expression of a clinical mutant of the human amyloid precursor protein [V717I] (Moechars et al., 1999 J. Biol. Chem. 274, 6483). Young transgenic mice have high levels of Aβ in the brain but no detectable Aβ deposition. At approximately 6-8 months of age, the transgenic mice start to display spontaneous, progressive accumulation of β-amyloid (Aβ) in the brain, eventually resulting in amyloid plaques within the subiculum, hippocampus and cortex. Animals treated with the Aβ42 lowering agent were examined and compared to those untreated or treated with vehicle and brain levels of soluble Aβ42 and total Aβ would be quantitated by standard techniques, for example, using ELISA. Treatment periods varied from hours to days and were adjusted based on the results of the Aβ42 lowering once a time course of onset of effect could be established.
(§2) A typical protocol for measuring Aβ42 lowering in vivo is shown but it is only one of many variations that could be used to optimize the levels of detectable Aβ. For example, Aβ42 lowering compounds were formulated in 20% of Captisol® (a sulfobutyl ether of β-cyclodextrin) in water or 20% hydroxypropyl β cyclodextrin. The Aβ42 lowering agents were administered as a single oral dose or by any acceptable route of administration to overnight fasted animals. After four hours, the animals were sacrificed and Aβ42 levels were analysed.
(§3) Blood was collected by decapitation and exsanguinations in EDTA-treated collection tubes. Blood was centrifuged at 1900 g for 10 minutes at 4° C. and the plasma recovered and flash frozen for later analysis. The brain was removed from the cranium and hindbrain. The cerebellum was removed and the left and right hemisphere were separated. The left hemisphere was stored at −18° C. for quantitative analysis of test compound levels. The right hemisphere was rinsed with phosphate-buffered saline (PBS) buffer and immediately frozen on dry ice and stored at −80° C. until homogenization for biochemical assays.
(§4) Mouse brains were resuspended in 10 volumes of 0.4% DEA (diethylamine)/50 mM NaCl pH 10 (for non-transgenic animals) or 0.1% 3-[3-cholamidopropyl)-dimethyl-ammonio]-1-propanesulfonate (CHAPS) in tris buffered saline (TBS) (for transgenic animals) containing protease inhibitors (Roche-11873580001 or 04693159001) per gram of tissue, e.g. for 0.158 g brain, add 1.58 ml of 0.4% DEA. All samples were sonicated for 30 seconds on ice at 20% power output (pulse mode). Homogenates were centrifuged at 221.300×g for 50 min. The resulting high speed supernatants were then transferred to fresh tubes and were optionally further purified before the next step. A portion of the supernatant was neutralized with 10% 0.5 M Tris-HCl and this was used to quantify Aβtotal.
The obtained supernatants were purified with Water Oasis HLB reverse phase columns (Waters Corp., Milford, Mass.) to remove non-specific immunoreactive material from the brain lysates prior subsequent Aβ detection. Using a vacuum manifold, all solutions were passed through the columns at a rate of approximately 1 ml per minute, so the vacuum pressure was adjusted accordingly throughout the procedure. Columns were preconditioned with 1 ml of 100% MeOH, before equilibration with 1 ml of H2O. Non-neutralized brain lysates were loaded onto the columns. The loaded samples were then washed twice with the first wash performed with 1 ml of 5% MeOH, and the second wash with 1 ml of 30% MeOH. Finally, the Aβ was eluted from the columns and into 100×30 mm glass tubes, with a solution of 90% MeOH with 2% NH4OH. […]

[4] = test system: Aβtotal; assay: Demonstration of in vivo efficacy: Aβtotal lowering in brain after single oral dose (Table 13); settings: mouse brain soluble fraction, mean, compared to untreated animals
Text: as §1, §2, §3
as §4, with “Aβtotal. […]” for “Aβtotal.”
In this model at least 20% Aβ42 lowering compared to untreated animals would be advantageous.

[5] = test system: Aβ42; assay: Screening for γ-secretase-modulating activity, Method 2: Aβ42 Alphalisa in supernatant of SKNBE2 cells carrying APP 695 wild type (Table 12c); type: cell-based; settings: Method 2, Table 12c, incubated overnight
Method: (§5) Screening was carried out using SKNBE2 cells carrying the APP 695—wild type, grown in Dulbecco's Modified Eagle's Medium/Nutrient mixture F-12 (DMEM/NUT-mix F-12) (HAM) provided by Invitrogen (cat no. 10371-029) containing 5% Serum/Fe supplemented with 1% non-essential amino acids, 1-glutamine 2 mM, Hepes 15 mM, penicillin 50 U/ml (units/ml) en streptomycin 50 μg/ml. Cells were grown to near confluency.
(§6) The screening was performed using a modification of the assay as described in Citron et al (1997) Nature Medicine 3: 67. Briefly, cells were plated in a 384-well plate at 10^4 cells/well in Ultraculture (Lonza, BE12-725F) supplemented with 1% glutamine (Invitrogen, 25030-024), 1% non-essential amino acid (NEAA), penicillin 50 U/ml en streptomycin 50 μg/ml in the presence of test compound at different test concentrations. The cell/compound mixture was incubated overnight at 37° C., 5% CO2, The next day the media were assayed by two sandwich immuno-assays, for Aβ42 and Aβtotal.
(§7) Aβtotal and Aβ42 concentrations were quantified in the cell supernatant using the Aphalisa technology (Perkin Elmer). Alphalisa is a sandwich assay using biotinylated antibody attached to streptavidin coated donorbeads and antibody conjugated to acceptor beads. In the presence of antigen, the beads come into close proximity. The excitation of the donor beads provokes the release of singlet oxygen molecules that trigger a cascade of energy transfer in the acceptor beads, resulting in light emission. To quantify the amount of Aβ42 in the cell supernatant, monoclonal antibody specific to the C-terminus of Aβ42 (JRF/cAβ42/26) was coupled to the receptor beads and biotinylated antibody specific to the N-terminus of Aβ (JRF/AβN/25) was used to react with the donor beads. To quantify the amount of Aβtotal in the cell supernatant, monoclonal antibody specific to the N-terminus of Aβ (JRF/AβN/25) was coupled to the receptor beads and biotinylated antibody specific to the mid region of Aβ (biotinylated 4G8) was used to react with the donor beads.
(§8) To obtain the values reported in Table 12c, the data are calculated as percentage of the maximum amount of amyloid Beta 42 measured in the absence of the test compound. The sigmoidal dose response curves were analyzed using non-linear regression analysis with percentage of the control plotted against the log concentration of the compound. A 4-parameter equation was used to determine the IC50.

[6] = test system: Aβtotal; assay: Screening for γ-secretase-modulating activity, Method 2: Aβtotal Alphalisa in supernatant of SKNBE2 cells carrying APP 695 wild type (Table 12c); type: cell-based; settings: Method 2, Table 12c, incubated overnight
Method: as §5, §6, §7, §8

[7] = Homo sapiens, Method 1, Table 12a, SKNBE2 cells carrying APP 695 wild type, compounds 18 hours, ELISA, curve top and bottom fixed to 100 and 0, hill slope 1
[8] = Homo sapiens, Table 12b, Method 1, SKNBE2 cells carrying APP 695 wild type, cell supernatant ELISA, averaged IC50 values, percentage of control vs log concentration
[9] = Homo sapiens, Table 12b, Method 1, SKNBE2 cells carrying APP 695 wild type, cell supernatant ELISA, averaged IC50 values
[10] = Table 12b, Method 1, SKNBE2 cells carrying APP 695 wild type, cell supernatant ELISA, averaged IC50 values, percentage of control vs log concentration
[11] = Table 12b, Method 1, SKNBE2 cells carrying APP 695 wild type, cell supernatant ELISA, averaged IC50 values

| IC50 [1, 7] [nM] | IC50 [1, 8] [nM] | IC50 [2, 7] [µM] | IC50 [2, 9] [µM] | IC50 ([5]; Homo sapiens) [nM] | IC50 ([6]; Homo sapiens) [µM] | IC50 [1, 10] [nM] | IC50 [2, 11] [µM] | IC50 [5] [nM] | IC50 [6] [µM] | SMILES | Aβ42 (% Ctrl)_Mean [3] [% Ctrl] | Aβtotal (% Ctrl)_Mean [4] [% Ctrl] |
| --- | --- | --- | --- | --- | --- | --- | --- | --- | --- | --- | --- | --- |
| 30 | 148 | > 1 | 12.6 |  |  |  |  |  |  | COc1cc(Nc2cccn3cc(Cc4ccc(F)cc4)nc23)ccc1-n1cnc(C)c1 [Compound 3] | 56 | 95 |
| 37 | 36 | > 1 | > 3.02 |  |  |  |  |  |  | COc1cccc(-c2nc3c(Nc4ccc(-n5cncn5)c(OC)c4)cccn3c2C)c1 [Compound 7] | 68 | 105 |
| 541 | 562 | > 20 | > 20 |  |  |  |  |  |  | COc1cc(Nc2cccn3c(-c4ccc(F)cc4)cnc23)ccc1-n1cnc(C)c1 [Compound 8] | 88 | 96 |
|  | 1660 |  | > 3.02 | 603 | 6.17 |  |  |  |  | Cc1cn(-c2ccc(Nc3cccn4cc(C)nc34)cc2F)cn1 [Compound 119] |  |  |
|  | 589 |  | > 30.2 | 363 | > 10 |  |  |  |  | Cc1cn(-c2ccc(Nc3cccn4cc(C5CC5)nc34)cc2F)cn1 [Compound 120] |  |  |
|  | 11 |  | > 3.02 | 18 | 9.12 |  |  |  |  | COc1cc(Nc2cccn3c(C)c(-c4ccccc4Cl)nc23)ccc1-n1cnc(C)n1 [Compound 124] |  |  |
|  |  |  |  |  |  | 30 | > 3.02 | 51 | 7.94 | COCc1c(-c2ccc(F)cc2)nc2c(Nc3ccc(-n4cnc(C)n4)c(OC)c3)cccn12 [Compound 125] |  |  |
|  |  |  |  |  |  | 46 | > 10 | 74 | > 10 | COCCCc1c(-c2ccc(F)cc2)nc2c(Nc3ccc(-n4cnc(C)n4)c(OC)c3)cccn12 [Compound 129] |  |  |
|  | 631 |  | > 10 | 102 | > 10 |  |  |  |  | COc1cc(Nc2cccn3cc(-c4cc(C#N)ccc4C)nc23)ccc1-n1cnc(C)n1 [Compound 135] |  |  |
|  | 676 |  | > 30.2 | 813 | > 10 |  |  |  |  | COc1cc(Nc2cccn3cc(C4CCOCC4)nc23)ccc1-n1cnc(C)n1 [Compound 136] |  |  |
|  | 1380 |  | > 3.02 | 871 | > 10 |  |  |  |  | COc1cc(Nc2cccn3cc(CC4CCOCC4)nc23)ccc1-n1cnc(C)n1 [Compound 137] |  |  |
|  |  |  |  |  |  | 100 | > 3.02 | 120 | > 10 | COc1nc(Nc2cccn3cc(C)nc23)ccc1-n1cnc(C)c1 [Compound 144] |  |  |
|  |  |  |  |  |  | 389 | > 10 | 174 | > 10 | Cc1cn(-c2ccc(Nc3cc(F)cn4cc(C5CCOCC5)nc34)cc2F)cn1 [Compound 149] |  |  |
|  |  |  |  |  |  | 513 | > 3.02 | 219 | > 10 | COc1cc(Nc2cc(C(F)(F)F)cn3cc(C(C)(C)O)nc23)ccc1-n1cnc(C)c1 [Compound 151] |  |  |
|  |  |  |  |  |  | 24 | > 3.02 | 28 | > 10 | CCOC(=O)c1cn2cc(C(F)(F)F)cc(Nc3ccc(-n4cnc(C)c4)c(OC)c3)c2n1 [Compound 155] |  |  |
|  |  |  |  |  |  | 102 | > 3.02 | 50 | 7.41 | COc1cc(Nc2cc(Cl)nn3cc(-c4cc(F)ccc4C)nc23)ccc1-n1cnc(C)c1 [Compound 157] |  |  |
|  |  |  |  |  |  | 3020 | > 3.02 | 380 | 10 | Cc1cn(-c2ccc(Nc3cc(C(F)(F)F)nn4cc(C5CCOCC5)nc34)cc2F)cn1 [Compound 168] |  |  |
|  |  |  |  |  |  | > 3020 | > 3.02 | > 10000 | > 10 | Cc1cn(-c2ccc(Nc3cc(C(F)(F)F)nn4cc(C)nc34)cc2F)cn1 [Compound 173] |  |  |
|  |  |  |  |  |  | 41 | > 3.02 | 72 | 5.25 | COc1cc(Nc2nccn3cc(-c4ccc(F)cc4)nc23)ccc1-n1cnc(C)c1 [Compound 175] |  |  |
|  | 324 |  | > 10 | 107 | 8.32 |  |  |  |  | COc1cc(Nc2nccn3cc(-c4ccc(F)cc4C)nc23)ccc1-n1cnc(C)n1 [Compound 176] |  |  |

Source: patent US8546440B2, “Substituted bicyclic imidazole derivatives as gamma secretase modulators” (Janssen Pharmaceuticals, Inc., priority 2008, dated 2013)
